According to patent publication US20020010209A1, “Use of benzopyranols to treat neurological disorders” (priority 1996, published 2002):

Tested on: trigemino-vascular system
Assay: Trigeminal nerve model in anaesthetised cats (TGN stimulation-induced reduction in carotid vascular resistance)
Type: in vivo, cat
Conditions: for % Change in TGN-reduction in carotid vascular resistance at 4 hours following continuous iv infusion (mean ± sem) / % Changes of TGW-induced reduction in carotid vascular resistance 3 hours (mean ± sem): anaesthetised cat
Experimental: Trigeminal nerve model in anaesthetised cats
Cats were anaesthetised with α-chloralose (90-110 mg/kg i.v.) and artificially respired with room air. Body temperature was maintained at 37-38 C. A femoral artery was cannulated for recording of blood pressure and heart rate. Arterial blood flow was recorded by a Doppler flow probe placed around the right common carotid artery. Bipolar stainless electrodes were stereotaxically placed into each trigeminal ganglion. Guanethidine (3 mg/kg i.v.) was then administered and 45 min allowed for stabilisation. […]

[1] = continuous iv infusion 3.4 μmol/h, at 4 hours
[2] = intraduodenal administration 10 mg.kg, after 3 hours
[3] = intravenous administration at 3.4 μmol/h, at 4 hours

SMILES	% Change in TGN-reduction in carotid vascular resistance at 4 hours following continuous iv infusion (mean ± sem) [1]	% Changes of TGW-induced reduction in carotid vascular resistance 3 hours (mean ± sem) (intraduodenal 10 mg/kg in labrasol)	inhibition of TGN-induced reduction in carotid vascular resistance (in words) [2]	inhibition of TGN-induced reduction in carotid vascular resistance (in words) [3]	% Change in TGN-reduction in carotid vascular resistance at 4 hours following continuous iv infusion (mean ± sem) (continuous iv infusion 11 μmol/h, at 4 hours)	% Changes of TGW-induced reduction in carotid vascular resistance 3 hours (mean ± sem) (intraduodenal 10 mg/kg in methylcellulose)	effects on TGN stimulation-induced reductions in carotid vascular resistance (in words) (guanethidine treated anaesthetised cat)	inhibition of trigeminal nerve mediated responses (guanethidine treated anaesthetised cat, intraduodenal bolus 10 mg/kg, 2 hours post administration, n=4)
CC(=O)c1ccc2c(c1)[C@H](NC(=O)c1ccc(F)cc1)[C@@H](O)C(C)(C)O2 (relative stereo) [Compound 1, trans-6-acetyl-4S-(4-fluorobenzoylamino)-3,4-dihydro-2,2-dimethyl-2H-1-benzopyran-3R-ol]	−29.1 ± 3.7 %	−43 ± 12.9 %	significant inhibition	significant inhibition	–	–	–	–
CC(=O)c1ccc2c(c1)[C@H](NC(=O)c1ccc(F)c(Cl)c1)[C@H](O)C(C)(C)O2 (relative stereo) [Compound 2, cis-6-acetyl-4S-(3-chloro-4-fluorobenzoylamino)-3,4-dihydro-2,2-dimethyl-2H-1-benzopyran-3S-ol]	−30.0 ± 6.6 %	–	significant inhibition	significant inhibition	−21.8 ± 14 %	−69%	–	–
CC(=O)c1ccc2c(c1)[C@H](NC(=O)c1cc(F)cc(F)c1)[C@@H](O)C(C)(C)O2 (relative stereo) [Compound 3, trans-6-acetyl-4S-(3,5-difluorobenzoylamino)-3,4-dihydro-2,2-dimethyl-2H-1-benzopyran-3R-ol]	–	–	–	–	–	–	marked effects	77%
